Measurements as given in the NIST ThermoML archive (doi:10.1016/j.fluid.2017.09.023).
Numbers after ± are expanded uncertainties.

Conditions: Crystal, Transpiration method

CC(=O)Nc1ccccc1 [N-phenylethanamide]
Conditions	vapor or sublimation pressure [kPa]
316.3 K	9e-05 ± 2e-05
320.3 K	0.00015 ± 2e-05
322.3 K	0.00018 ± 2e-05
323.2 K	0.00021 ± 2e-05
325.3 K	0.00025 ± 2e-05
327 K	0.0003 ± 2e-05
328.1 K	0.00035 ± 3e-05
328.2 K	0.00033 ± 2e-05
333.3 K	0.0006 ± 5e-05
334.3 K	0.00064 ± 5e-05
337.1 K	0.00088 ± 7e-05
339.4 K	0.00114 ± 8e-05
340.3 K	0.00119 ± 8e-05
342.4 K	0.00159 ± 0.0001
345.5 K	0.00205 ± 0.00014
346.1 K	0.00214 ± 0.00015
347.2 K	0.0024 ± 0.00016
349.4 K	0.00299 ± 0.0002
351.2 K	0.00356 ± 0.00023
352.5 K	0.00422 ± 0.00028
355.5 K	0.00532 ± 0.00038
356.4 K	0.00601 ± 0.00043
357.4 K	0.00636 ± 0.00044
359.2 K	0.00759 ± 0.00052
360.2 K	0.00852 ± 0.00059
362.2 K	0.01028 ± 0.0007
364.3 K	0.01261 ± 0.00085
365.3 K	0.01406 ± 0.00095
366.7 K	0.01576 ± 0.001
368.4 K	0.01777 ± 0.0012
369.2 K	0.01911 ± 0.0013
372.2 K	0.02411 ± 0.0016
